The text below walks through data of ChEMBL document CHEMBL1156904, “Part II: piperazinyl-glutamate-pyridines as potent orally bioavailable P2Y12 antagonists for inhibition of platelet aggregation” (Bioorg Med Chem Lett, 2010).

One data set addresses P2Y purinoceptor 12 (Homo sapiens, UniProt Q9H244). Put plainly: Inhibition of human P2Y12 receptor expressed in CHO cells.
Data set [1] in a line: Antiplatelet activity in human platelet rich plasma assessed as inhibition of ADP-induced platelet aggregation. In kind it is functional.
A short description of data set [2]: Antiplatelet activity in human platelet rich plasma assessed as inhibition of ADP-induced platelet aggregation relative to AZD-6140. Type of data set: functional.
A short description of data set [3]: Metabolic stability in rat microsomes. In kind it is ADME, Microsome.
Data set [4] is described as follows: Metabolic stability in human microsomes. In kind it is ADME, Microsome.

Structures are written as SMILES.

P2Y purinoceptor 12, sequence (Q9H244 whole entry): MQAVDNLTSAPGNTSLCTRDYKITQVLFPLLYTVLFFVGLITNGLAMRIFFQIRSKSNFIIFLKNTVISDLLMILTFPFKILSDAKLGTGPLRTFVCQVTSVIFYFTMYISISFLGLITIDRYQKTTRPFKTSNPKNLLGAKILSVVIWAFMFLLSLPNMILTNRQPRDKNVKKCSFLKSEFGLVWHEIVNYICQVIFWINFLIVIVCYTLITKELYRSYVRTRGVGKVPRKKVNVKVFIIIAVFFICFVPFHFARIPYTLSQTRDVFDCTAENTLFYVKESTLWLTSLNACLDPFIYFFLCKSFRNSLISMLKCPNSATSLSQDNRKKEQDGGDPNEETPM

A word on the Ki: it is a dissociation constant, usually derived from enzyme kinetics or from competition with a known ligand. Higher therefore signals lower affinity. By IC50 is commonly meant the concentration needed to halve the response being measured. `CCCCCOC(=O)N1CCN(C(=O)[C@H](CCC(=O)O)NC(=O)c2cc(N3CCN(CCC)CC3)cc(-c3ccccc3)n2)CC1`: the Ki at P2Y purinoceptor 12 is 0.029 µM. Further, the concentration for half-maximal inhibition (IC50) in data set [1] was 5 µM. In data set [2], the “fold change (FC)” value stood at 6.3. For the same compound, the Stability result in data set [3] and in data set [4] was “Stable” in each case.
At P2Y purinoceptor 12, `CCCCCOC(=O)N1CCN(C(=O)[C@H](CCC(=O)O)NC(=O)c2cc(N3CCN(C(=O)N(CC)CC)CC3)cc(-c3ccccc3)n2)CC1` came in with an inhibitory constant (Ki) of 0.012 µM. Besides, in data set [1], the IC50 was 3.2 µM. Also, the “fold change (FC)” value in data set [2] was 4.6. For the same compound, the Stability entry in data set [3] and in data set [4] was “Stable” throughout.
Regarding `CCCCCOC(=O)N1CCN(C(=O)[C@H](CCC(=O)O)NC(=O)c2cc(N3CCC(CN)CC3)cc(-c3ccccc3)n2)CC1`, the affinity at P2Y purinoceptor 12 corresponds to a Ki of 0.015 µM. Also, the IC50 in data set [1] is 0.78 µM. Further, the “fold change (FC)” value in data set [2] worked out at 0.62. Moreover, the Stability result in data set [3] and in data set [4] was “Stable” each time.
Consider `CCCCCOC(=O)N1CCN(C(=O)[C@H](CCC(=O)O)NC(=O)c2cc(N3CCN(C(=O)N(C)C)CC3)cc(-c3ccccc3)n2)CC1`, for which the Ki at P2Y purinoceptor 12 amounted to 0.0059 µM. Also, the IC50 in data set [1] turned out to be 3 µM. Besides, the “fold change (FC)” value in data set [2] came to 3.6. Further, the Stability entry in data set [3] and in data set [4] was “Stable” throughout.
The compound `CCCCCOC(=O)N1CCN(C(=O)[C@H](CCC(=O)O)NC(=O)c2cc(N3CC[C@@H](C(=O)N(CC)CC)C3)cc(-c3ccccc3)n2)CC1` returned a Ki on P2Y purinoceptor 12 of 0.0026 µM. In addition, in data set [1], the IC50 was determined as 6.6 µM. Also, the “fold change (FC)” value in data set [2] worked out at 5. For the same compound, the Stability result in data set [3] and in data set [4] was “Stable” in each case.
As for `CCCCCOC(=O)N1CCN(C(=O)[C@H](CCC(=O)O)NC(=O)c2cc(N3CCN(CC(=O)N(C)C)CC3)cc(-c3ccccc3)n2)CC1`, affinity at P2Y purinoceptor 12 was put at a Ki of 0.0049 µM. Also, the IC50 in data set [1] came out at 0.69 µM. Also, in data set [2], the “fold change (FC)” value came out at 1.1. Further, the Stability result in data set [3] and in data set [4] was “Stable” in each case.
In turn, `CCCCCOC(=O)N1CCN(C(=O)[C@H](CCC(=O)O)NC(=O)c2cc(N3CCC(C(=O)N(C)C)CC3)cc(-c3ccccc3)n2)CC1` yielded a Ki at P2Y purinoceptor 12 of 0.00098 µM. Moreover, the concentration for half-maximal inhibition (IC50) in data set [1] was 0.6 µM. Also, the “fold change (FC)” value in data set [2] stood at 0.72. Moreover, the Stability entry in data set [3] and in data set [4] was “Stable” in each case.
At P2Y purinoceptor 12, `CCCCCOC(=O)N1CCN(C(=O)[C@H](CCC(=O)O)NC(=O)c2cc(N3CC(N4CCOCC4)C3)cc(-c3ccccc3)n2)CC1` came in with a Ki of 0.0033 µM. Also, in data set [1], the half-inhibitory concentration (IC50) amounted to 1.4 µM. For the same compound, the Stability result in data set [3] and in data set [4] was “Stable” each time.
Compound `CCCCCOC(=O)N1CCN(C(=O)[C@H](CCC(=O)O)NC(=O)c2cc(N3CC(C(=O)NC)C3)cc(-c3ccccc3)n2)CC1` displayed a Ki on P2Y purinoceptor 12 of 0.0017 µM. The IC50 in data set [1] was 2 µM. Further, the Stability result in data set [3] and in data set [4] was “Stable” in each case.
Regarding `CCCCCOC(=O)N1CCN(C(=O)[C@H](CCC(=O)O)NC(=O)c2cc(N3CCCC(COC)C3)cc(-c3ccccc3)n2)CC1` (some centres undefined), the Ki on P2Y purinoceptor 12 was 0.022 µM. The IC50 in data set [1] amounted to 11 µM. Besides, the Stability entry in data set [3] and in data set [4] was “Stable” throughout.
The compound `CCCCCOC(=O)N1CCN(C(=O)[C@H](CCC(=O)O)NC(=O)c2cc(N3CC(C(N)=O)C3)cc(-c3ccccc3)n2)CC1` yielded a Ki at P2Y purinoceptor 12 of 0.00064 µM. In addition, the half-inhibitory concentration (IC50) in data set [1] was determined as 1.9 µM. Besides, the Stability result in data set [3] and in data set [4] was “Stable” in each case.
Regarding `CCCCCOC(=O)N1CCN(C(=O)[C@H](CCC(=O)O)NC(=O)c2cc(N3CC(N(C)C)C3)cc(-c3ccccc3)n2)CC1`, the Ki at P2Y purinoceptor 12 came to 0.0055 µM. In addition, in data set [1], the IC50 was 2.7 µM. Also, the Stability result in data set [3] and in data set [4] was “Stable” throughout.
With `CCCCCOC(=O)N1CCN(C(=O)[C@H](CCC(=O)O)NC(=O)c2cc(N3CC(OC)C3)cc(-c3ccccc3)n2)CC1`, the Ki at P2Y purinoceptor 12 is 0.002 µM. Further, the IC50 in data set [1] was more than 10 µM. For the same compound, the Stability result in data set [3] and in data set [4] was “Stable” each time.
